The results in this text go back to patent publication US20200061062A1, “INHIBITORS OF HUMAN PHOSPHATIDYLINOSITOL 3-KINASE DELTA” (ICOS Corporation, priority 2000, published 2020).

The experiment deals with T cells. Description: T cell proliferation in response to costimulation of CD3+CD28. Conditions: Homo sapiens, highest tested concentration 10 μM, read-out: Half-maximal inhibition of thymidine incorporation (anti-CD3- and anti-CD28-induced T cell proliferation). Type of experiment: cell-based. As to the method: T cell proliferation in response to costimulation of CD3+CD28 was measured. T cells were purified from healthy human blood by negative selection using antibody coated magnetic beads according to the manufacturer's protocol (Dynal) and resuspended in RPMI. The cells were treated with either DMSO or a serial dilution of D-000 in DMSO and plated at 1×10^5 cells/well on a 96-well plate precoated with goat antimouse IgG. Mouse monoclonal anti-CD3 and anti-CD28 antibodies were then added to each well at 0.2 ng/mL and 0.2 μg/mL, respectively. The plate was incubated at 37° C. for 24 hr and [^3H]-thymidine (1 μCi/well) was added. After another 18 hr incubation the cells were harvested with an automatic cell harvester, washed and the incorporated radioactivity was quantified.
In general terms: Uptake of a labelled nucleoside into DNA is a usual measure of proliferation.

Each structure is given as a SMILES string. pIC50: −log10 of the molar value.

Take `O=c1c2ccccc2nc(CSc2ncnc3[nH]cnc23)n1-c1ccccc1Cl` [Compound D-000, 3-(2-chlorophenyl)-2-(9H-purin-6-ylsulfanylmethyl)-3H-quinazolin-4-one]: the pIC50 was under 5.00.
